Data set [1] has as its target T1, Apelin receptor (Homo sapiens) (UniProt P35414).
T1 sequence (whole entry): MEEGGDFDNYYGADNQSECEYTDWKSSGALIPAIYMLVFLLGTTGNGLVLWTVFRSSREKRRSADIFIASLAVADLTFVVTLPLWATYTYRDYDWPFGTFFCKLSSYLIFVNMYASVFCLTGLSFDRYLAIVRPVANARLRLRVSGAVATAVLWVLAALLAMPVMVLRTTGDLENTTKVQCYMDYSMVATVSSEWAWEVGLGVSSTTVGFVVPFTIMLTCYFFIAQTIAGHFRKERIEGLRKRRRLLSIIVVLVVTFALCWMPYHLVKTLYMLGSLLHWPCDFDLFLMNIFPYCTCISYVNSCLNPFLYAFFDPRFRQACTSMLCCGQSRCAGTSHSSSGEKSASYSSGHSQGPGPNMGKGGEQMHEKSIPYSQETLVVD
In words: Agonist activity at human APJ expressed in HEK293 cell membrane assessed as maximal efficacy for recruitment of beta-arrestin2 to receptor by BRET-based beta-arrestin2 assay relative to control. Format: functional. Conditions: filed as agonist. A general note: BRET reads energy transfer from a luciferase to a nearby fluorophore.

The target of data set [2] is T1, Apelin receptor (Homo sapiens). Kind of data set: Agonist activity at human APJ expressed in HEK293 cell membrane assessed as maximal efficacy for recruitment of PDZ-RhoGEF Galphai1 to cell membrane by BRET-based G protein dissociation assay relative to control. Format: functional.
For data set [3] the target is unchanged. Kind of data set: Agonist activity at human APJ expressed in HEK293 cells assessed as maximal efficacy for dissociation of G alphai1 from the G beta gamma subunit by BRET-based G protein dissociation assay relative to control. Format: functional, cell-based. The note with it: filed as agonist.
Data set [4] concerns the target T2, Apelin receptor (Homo sapiens, UniProt P35414).
T2 sequence (P35414 whole entry): T1 sequence (whole entry)
In words: Displacement of [125I]-[Nle75,Tyr77][Pyr1]-Ape13 from YFP-tagged human APJ expressed in HEK293 cell membranes assessed as inhibition constant incubated for 1 hr by scintillation counting method. For orientation: Displacement assays read how much labelled ligand stays bound in the presence of the test substance.

In data set [5] the test system is Rattus norvegicus. Kind of data set: Hypotensive effect in Sprague-Dawley rat assessed as decrease in blood pressure at 19.6 to 65 nmol/kg, iv relative to control. In kind it is functional. The note with it: dose 19.6-65 nmol/kg.
The nature of data set [6]: AUC in Sprague-Dawley rat plasma at 3 mg/kg, iv by LC/MS-MS analysis. In kind it is ADME, organism-based. The arrangement: dose 3 mg/kg. Conditions: in vivo.
Data set [7] in a line: Stability in Sprague-Dawley rat plasma at 3 mg/kg, iv upto 2 hrs by LC/MS-MS analysis. Conditions: in vivo. Format: ADME, organism-based.
The subject of data set [8] is Rattus norvegicus. Kind of data set: Cardioprotective activity in Sprague-Dawley rat assessed as effect on left ventricular fractional shortening at 2 micromol/kg, sc after 3 hrs by echocardiography relative to control. Conditions: dose 2 µmol/kg. In kind it is functional.
Data set [9] relates to Rattus norvegicus. In words: Cardioprotective activity in Sprague-Dawley rat assessed as effect on left ventricular fractional shortening at 0.2 micromol/kg, sc after 3 hrs by echocardiography. Format: functional, organism-based. The note with it: dose 0.2 µmol/kg.
Data set [10] has as its system Rattus norvegicus. In words: Cardioprotective activity in Sprague-Dawley rat assessed as effect on cardiac output in sprague-dawley rat at 2 micromol/kg, sc after 3 hrs by echocardiography relative to control. Format: functional. Conditions: dose 2 µmol/kg.
A short description of data set [11]: Stability in Sprague-Dawley rat plasma assessed as half life measured upto 24 hrs by UPLC-MS analysis. Format: ADME, cell-free.

The source made the active and inactive calls. Bridge positions count the residues as written; N and C are the ends. Square brackets hold non-standard residues; d marks the D form. Peptide text beside a SMILES is read from it. AllylGly = C=CC[C@H](N)C(=O)O; Nle = CCCC[C@H](N)C(=O)O; Ava = NCCCCC(=O)O Where only a bound is given, the exact number is not on record here.

Data on 18 compounds can be found in ChEMBL document CHEMBL5038644 (J Med Chem, 2022).

`CCCC[C@H](NC(=O)[C@@H]1CCCN1C(=O)CNC(=O)[C@H](CCCCN)NC(=O)[C@@H]1C/C=C\C[C@H](NC(=O)[C@H](CCCNC(=N)N)NC(=O)[C@@H]2CCC(=O)N2)C(=O)N[C@@H](CCCNC(=N)N)C(=O)N[C@@H](CC(C)C)C(=O)N[C@@H](CO)C(=O)N1)C(=O)N1CCC[C@H]1C(=O)N[C@@H](Cc1ccccc1)C(=O)O`: the Emax in data set [1] came out at 98%; in [2] (filed as agonist), 98%; in data set [3], 101%.

For `CCCC[C@H](NC(=O)[C@@H]1CCCN1C(=O)CNC(=O)[C@@H]1C/C=C\C[C@H](N)C(=O)N[C@@H](CCCNC(=N)N)C(=O)N[C@@H](CC(C)C)C(=O)N[C@@H](CO)C(=O)N1)C(=O)O` (H-[AllylGly]RLS[AllylGly]GP[Nle]-OH; staple (Z) 1-5), the Ki in [4] is greater than 10 µM.

On to `CCCC[C@H](NC(=O)[C@@H]1CCCN1C(=O)CNC(=O)[C@H](CCCCN)NC(=O)[C@@H]1C/C=C\C[C@H](N)C(=O)N[C@@H](CCCNC(=N)N)C(=O)N[C@@H](CC(C)C)C(=O)N[C@@H](CO)C(=O)N1)C(=O)O`, for which the Activity in data set [5] is -13 mmHg. Moreover, the Emax was 69% in data set [1], 59% in [2] (filed as agonist) and 99% in data set [3].

Take `CC(C)C[C@@H]1NC(=O)[C@H](CCCNC(=N)N)NC(=O)[C@@H](N)C/C=C\C[C@@H](C(=O)N[C@@H](CCCCN)C(=O)NCC(=O)N2CCC[C@H]2C(=O)N[C@H](Cc2cccc3ccccc23)C(=O)O)NC(=O)[C@H](CO)NC1=O`: the AUC in data set [6] is 1.33 mg·min/mL. Further, the Stability result in [7] was “Stable”. Further, the values for the Activity in [8], in data set [5] and in [10] were 22%, -24 mmHg and 22%, respectively. In addition, the Emax in data set [1] was 70%; in [2], 3%; in [3] it was 103%. The result in data set [9] was Active.

With `CC(C)C[C@@H]1NC(=O)[C@H](CCCNC(=N)N)NC(=O)[C@@H](N)C/C=C\C[C@@H](C(=O)N[C@@H](CCCCN)C(=O)NCC(=O)N2CCC[C@H]2C(=O)N[C@H](Cc2ccc(OCc3ccccc3)cc2)C(=O)O)NC(=O)[C@H](CO)NC1=O`, the results for the Emax in data set [1], in [2] (filed as agonist) and in data set [3] were 78%, 48% and 104%, respectively.

`CCCC[C@H](NC(=O)[C@@H]1CCCN1C(=O)CNC(=O)[C@H](CCCCN)NC(=O)[C@@H]1CCN(S(=O)(=O)c2ccccc2[N+](=O)[O-])C/C=C/C[C@H](NC(=O)[C@H](CCCNC(=N)N)NC(=O)[C@@H]2CCC(=O)N2)C(=O)N[C@@H](CCCNC(=N)N)C(=O)N[C@@H](CC(C)C)C(=O)N[C@@H](CO)C(=O)N1)C(=O)N1CCC[C@H]1C(=O)N[C@@H](Cc1ccccc1)C(=O)O`: the Emax in [1] is 98%; in data set [2] (filed as agonist), 92%; in data set [3], 102%.

For the compound `CCCC[C@H](NC(=O)[C@@H]1CCCN1C(=O)CNC(=O)[C@H](CCCCN)NC(=O)[C@@H]1CCNC/C=C/C[C@H](NC(=O)[C@H](CCCNC(=N)N)NC(=O)[C@@H]2CCC(=O)N2)C(=O)N[C@@H](CCCNC(=N)N)C(=O)N[C@@H](CC(C)C)C(=O)N[C@@H](CO)C(=O)N1)C(=O)N1CCC[C@H]1C(=O)N[C@@H](Cc1ccccc1)C(=O)O`, the maximal response (Emax) in data set [1] came out at 86%; in data set [2] (filed as agonist), 95%; in data set [3], 100%.

`CCCC[C@H](NC(=O)[C@@H]1CCCN1C(=O)CNC(=O)[C@H](CCCCN)NC(=O)[C@@H]1Cc2cncn2C/C=C/C[C@H](NC(=O)[C@H](CCCNC(=N)N)NC(=O)[C@@H]2CCC(=O)N2)C(=O)N[C@@H](CCCNC(=N)N)C(=O)N[C@@H](CC(C)C)C(=O)N[C@@H](CO)C(=O)N1)C(=O)N1CCC[C@H]1C(=O)N[C@@H](Cc1ccccc1)C(=O)O`: the Activity in [5] is -36 mmHg. Also, the maximal response (Emax) came to 115% in data set [1], 98% in data set [2] (filed as agonist) and 99% in [3].

With `CCCC[C@H](NC(=O)[C@@H]1CCCN1C(=O)CNC(=O)[C@H](CCCCN)NC(=O)[C@@H]1C/C=C\C[C@H](NC(=N)N)C(=O)N[C@@H](CCCNC(=N)N)C(=O)N[C@@H](CC(C)C)C(=O)N[C@@H](CO)C(=O)N1)C(=O)N1CCC[C@H]1C(=O)N[C@@H](Cc1ccccc1)C(=O)O`, the figures for the Emax in data set [1], in data set [2] (filed as agonist) and in data set [3] were 92%, 105% and 103%, respectively.

In the case of `CCCC[C@H](NC(=O)[C@@H]1CCCN1C(=O)CCCCNC(=O)[C@@H]1C/C=C\C[C@H](N)C(=O)N[C@@H](CCCNC(=N)N)C(=O)N[C@@H](CC(C)C)C(=O)N[C@@H](CO)C(=O)N1)C(=O)O` (H-[AllylGly]RLS[AllylGly][Ava]P[Nle]-OH; staple (Z) 1-5), the Ki in data set [4] was greater than 10 µM.

Consider `CC(C)C[C@@H]1NC(=O)[C@H](CCCNC(=N)N)NC(=O)[C@@H](N)C/C=C\C[C@@H](C(=O)N[C@@H](CCCCN)C(=O)NCC(=O)N2CCC[C@H]2C(=O)N[C@H](Cc2ccc(O)cc2)C(=O)O)NC(=O)[C@H](CO)NC1=O`, for which the values for the Emax in data set [1], in data set [2] (filed as agonist) and in [3] were 54%, 45% and 100%, respectively.

For the compound `CCCC[C@H](NC(=O)[C@@H]1CCCN1C(=O)CNC(=O)[C@H](CCCCN)NC(=O)[C@@H]1CCN(S(=O)(=O)c2ccccc2[N+](=O)[O-])C/C=C/C[C@H](N)C(=O)N[C@@H](CCCNC(=N)N)C(=O)N[C@@H](CC(C)C)C(=O)N[C@@H](CO)C(=O)N1)C(=O)N1CCC[C@H]1C(=O)N[C@@H](Cc1ccccc1)C(=O)O`, the Emax worked out at 82% in [1], 93% in data set [2] (filed as agonist) and 106% in [3].

With `C=CC[C@H](NC(=O)[C@H](CO)NC(=O)[C@H](CC(C)C)NC(=O)[C@H](CCCNC(=N)N)NC(=O)[C@@H](N)CC=C)C(=O)N[C@@H](CCCCN)C(=O)NCC(=O)N1CCC[C@H]1C(=O)N[C@@H](CCCC)C(=O)N1CCC[C@H]1C(=O)N[C@@H](Cc1ccccc1)C(=O)O`, the Ki in data set [4] was 0.17 µM. In data set [11], the half-life was 6 min.

`CCCC[C@H](NC(=O)[C@@H]1CCCN1C(=O)CNC(=O)[C@H](CCCCN)NC(=O)[C@@H]1CC(=O)NCCCC[C@H](NC(=O)[C@H](CCCNC(=N)N)NC(=O)[C@@H]2CCC(=O)N2)C(=O)N[C@@H](CCCNC(=N)N)C(=O)N[C@@H](CC(C)C)C(=O)N[C@@H](CO)C(=O)N1)C(=O)N1CCC[C@H]1C(=O)N[C@@H](Cc1ccccc1)C(=O)O` (HELM PEPTIDE1{[Glp].R.K.R.L.S.D.K.G.P.[Nle].P.F}$PEPTIDE1,PEPTIDE1,3:R3-7:R3$$$V2.0): the Ki in data set [4] was 0.039 µM.

`CCCC[C@H](NC(=O)[C@@H]1CCCN1C(=O)CNC(=O)[C@H](CCCCN)NC(=O)[C@@H]1C/C=C\C[C@H](N)C(=O)N[C@@H](CCCNC(=N)N)C(=O)N[C@@H](CC(C)C)C(=O)N[C@@H](CO)C(=O)N1)C(=O)N1CCC[C@H]1C(=O)N[C@@H](Cc1ccccc1)C(=O)O`: the Activity in data set [5] is -27 mmHg. Also, the Emax in data set [1] came out at 98%; in [2] (filed as agonist), 98%; in [3], 100%.

`CC(C)C[C@@H]1NC(=O)[C@H](CCCNC(=N)N)NC(=O)[C@@H](N)C/C=C\C[C@@H](C(=O)N[C@@H](CCCCN)C(=O)NCC(=O)N2CCC[C@H]2C(=O)N[C@@H](C)C(=O)O)NC(=O)[C@H](CO)NC1=O` (H-[AllylGly]RLS[AllylGly]KGPA-OH; staple (Z) 1-5): the Ki in data set [4] was greater than 10 µM.

Regarding `CC(C)C[C@@H]1NC(=O)[C@H](CCCNC(=N)N)NC(=O)[C@@H](N)C/C=C\C[C@@H](C(=O)N[C@@H](CCCCN)C(=O)O)NC(=O)[C@H](CO)NC1=O` (H-[AllylGly]RLS[AllylGly]K-OH; staple (Z) 1-5), the Ki in data set [4] was greater than 10 µM.

On to `CCCC[C@H](NC(=O)[C@@H]1CCCN1C(=O)CNC(=O)[C@H](CCCCN)NC(=O)[C@@H]1CCN(C)C/C=C/C[C@H](NC(=O)[C@H](CCCNC(=N)N)NC(=O)[C@@H]2CCC(=O)N2)C(=O)N[C@@H](CCCNC(=N)N)C(=O)N[C@@H](CC(C)C)C(=O)N[C@@H](CO)C(=O)N1)C(=O)N1CCC[C@H]1C(=O)N[C@@H](Cc1ccccc1)C(=O)O`, for which the Emax came to 90% in [1], 97% in data set [2] (filed as agonist) and 102% in data set [3].

One may read the Emax as the greatest response seen or fitted, relative to the assay's reference. As a reminder, the Ki is a measure of affinity in units of concentration, obtained from inhibition or displacement. One may read the AUC as concentration integrated over time. As usually defined, the half-life is the time needed for the level to fall by half in the phase considered.
